Consider one compound from US11484032B2, “Compositions for inhibition of insect sensing” (Vanderbilt University, priority 2011, dated 2022).

For test [1], the target named is T1, DmORco (Drosophila melanogaster, UniProt Q9VNB5).
T1 construct: expressed in transfected cells; host or cells: Flp-In T-REx 293 (HEK), transient, pCI vector, GFP co-transfected as a separate marker
T1 sequence (Q9VNB5 1-486): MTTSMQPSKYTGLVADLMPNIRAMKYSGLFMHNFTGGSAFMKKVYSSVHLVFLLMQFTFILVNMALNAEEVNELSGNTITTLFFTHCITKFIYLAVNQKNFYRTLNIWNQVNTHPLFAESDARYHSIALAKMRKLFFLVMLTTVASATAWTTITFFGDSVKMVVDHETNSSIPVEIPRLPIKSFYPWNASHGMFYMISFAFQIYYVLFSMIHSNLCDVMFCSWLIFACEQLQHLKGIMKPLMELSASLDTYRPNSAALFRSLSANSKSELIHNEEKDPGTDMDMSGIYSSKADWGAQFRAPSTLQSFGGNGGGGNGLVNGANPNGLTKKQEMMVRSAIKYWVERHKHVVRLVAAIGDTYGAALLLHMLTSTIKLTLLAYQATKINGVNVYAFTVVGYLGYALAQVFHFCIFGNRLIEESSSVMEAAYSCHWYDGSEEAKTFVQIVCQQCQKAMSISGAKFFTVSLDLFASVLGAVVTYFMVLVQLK
The test is described as follows: Whole-cell patch clamp, HEK cells transiently expressing DmORco. The format is cell-based. Particulars: DmORco transiently transfected HEK cells. The text has this:
(§1) For transient transfections, ORs were cloned into pCl (Promega) and transfected into Flp-In™ T-REx™293 cell lines (Invitrogen) with Fu GENE6 (Roche). For the creation of stable cell lines, a cell culture expression vector capable of expressing Orco in conjunction with a conventional OR, pcDNA5/FRT/TO (Invitrogen) was modified to create two individual expression cassettes each under the control of a separate CMV/Tet02 promoter and a BGH poly-adenylation signal. Cells (as above) were transfected with the modified pcDNA5 plasmid along with POG44 (a Flp recombinase expression plasmid) to facilitate site-specific recombination. Stable cell lines were selected using Hygromycin B (Invitrogen). Cells were maintained in DMEM (Invitrogen) supplemented with 10% Tetracycline-free FBS (HyClone) and 15 ng/ml Blasticidin. […] Baseline readings were taken for 20 s before automated addition of compound previously diluted in DMSO and assay buffer. […]
(§2) Currents from OR-expressing HEK293 cells were amplified with an Axopatch 200b Amplifier (Axon Instruments) and digitized through a Digidata 1322A (Axon Instruments). Electrophysiological data was recorded and analyzed using pCLAMP 10 (Axon Instruments). […]
A general note: The patch-clamp technique gives a direct electrical read-out from membranes.

The test system of test [2] is HvOR2. In words: Whole-cell patch clamp, HEK cells transiently expressing HvOR2. It is filed as cell-based, Heliothis virescens. The settings on record: HvOR2 transiently transfected HEK cells.
Excerpt: as §1, §2

For test [3], the target named is T2, rat transient receptor potential vanilloid 1 (rTRPV1) (Rattus norvegicus, UniProt O35433).
T2 construct: expressed in transfected cells
The test is described as follows: Whole-cell patch clamp, HEK cells stably expressing rTRPV1. It is filed as cell-based.
Protocol: Currents from OR-expressing HEK293 cells were amplified with an Axopatch 200b Amplifier (Axon Instruments) and digitized through a Digidata 1322A (Axon Instruments). Electrophysiological data was recorded and analyzed using pCLAMP 10 (Axon Instruments). Electrodes were fabricated from quartz tubing (Sutter Instruments) and pulled to 4-6 MiΩ for whole cell recording. Electrodes were filled with internal solution (120 mM KCl, 30 mM D-glucose, 10 mM HEPES, 2 mM MgCl2, 1.1 mM EGTA, and 0.1 CaCl2) (pH 7.35, 280 mOsm). External (bath) solution contained 130 mM NaCl, 34 mM D-glucose, 10 mM HEPES, 1.5 mM CaCl2), 1.3 mM KH2PO4, and 0.5 MgSO4 (pH 7.35, 300 mOsm). Compounds were diluted in external solution and locally perfused to the recording cell using Perfusion Pencil (Automate Scientific) and controlled by a ValveLink 8.2 controller (Automate Scientific). Whole cell recordings were sampled at 10 kHz and filtered at 5 kHz. Outside-out patches were obtained using 10-15MΩ electrodes pulled from standard glass capillaries (World Precision Instruments) and fire-polished with an MF-830 micro forge (Narishige). Single channel recordings were sampled at 20 kHz. Recordings were reduced to 1 kHz and low-pass filtered at 500 Hz for display and analysis using QuB (SUNY at Buffalo).

The test system of test [4] is An. gambiae early 4th instar larvae. The test is described as follows: Larval mosquito movement assay (Daniovision-Ethovision). It is filed as in vivo, Anopheles gambiae. On the procedure:
Next, the agonist activity of the VUAA compound class was tested to establish the involvement of AgORs in mediating larval ortho and klinokinesis in response to a series of semiochemicals using larval-stage An. gambiae mosquitoes. Mosquito larvae are aquatic, thus compounds can be delivered to individual early 4th instar larvae regardless of volatility. The assay currently utilizes 6-well plates and the Daniovision-Ethovision platform (Noldus Inc.) to simultaneously record and analyze 6 larvae, thereby providing modest rates of throughput and a high degree of reproducibility. In these assays, larval movements are automatically quantified over 5-minute period and control larvae consistently move the same number of times in the presence or absence of 0.1% DMSO (p=0.80, n=31) (FIGS. 42-43). Furthermore, the effects of the widely-used synthetic insect repellent N, N-diethyl-meta-toluamide (DEET) was tested and DEET was also observed to increase larval movements at and above a threshold concentration of 5×10^−4M (p=0.013, n=27) (FIGS. 42-43).

T2 sequence (O35433 whole entry): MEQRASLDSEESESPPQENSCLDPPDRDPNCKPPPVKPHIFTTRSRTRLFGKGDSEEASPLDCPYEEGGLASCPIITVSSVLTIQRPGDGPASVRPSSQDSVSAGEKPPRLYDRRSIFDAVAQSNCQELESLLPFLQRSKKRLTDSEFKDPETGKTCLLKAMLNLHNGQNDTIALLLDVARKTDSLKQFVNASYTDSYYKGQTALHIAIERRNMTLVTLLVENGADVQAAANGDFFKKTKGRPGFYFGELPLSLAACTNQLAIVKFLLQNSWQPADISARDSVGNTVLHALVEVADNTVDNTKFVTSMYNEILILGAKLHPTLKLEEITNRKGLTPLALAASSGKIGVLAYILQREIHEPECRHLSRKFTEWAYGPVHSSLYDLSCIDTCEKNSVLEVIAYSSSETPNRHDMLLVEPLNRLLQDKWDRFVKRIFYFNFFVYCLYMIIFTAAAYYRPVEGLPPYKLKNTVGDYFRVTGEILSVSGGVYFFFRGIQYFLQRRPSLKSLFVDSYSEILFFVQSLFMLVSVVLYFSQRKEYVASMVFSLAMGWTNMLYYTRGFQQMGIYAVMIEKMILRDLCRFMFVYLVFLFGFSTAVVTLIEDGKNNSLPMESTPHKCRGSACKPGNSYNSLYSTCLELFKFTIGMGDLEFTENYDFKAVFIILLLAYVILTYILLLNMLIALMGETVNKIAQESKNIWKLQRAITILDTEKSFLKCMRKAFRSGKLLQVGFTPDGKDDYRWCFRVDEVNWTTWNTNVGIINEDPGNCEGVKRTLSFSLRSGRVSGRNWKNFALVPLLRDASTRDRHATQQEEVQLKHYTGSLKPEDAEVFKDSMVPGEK

With `CCc1ccc(NC(=O)CSc2nnc(-c3cccnc3)n2CC)cc1` [VUAA1, 2-((4-ethyl-5-(pyridin-3-yl)-4H-1,2,4-triazol-3-yl)thio)-N-(4-ethylphenyl)acetamide], the results for the whole-cell current response entry in test [1], in test [2] and in test [3] were “robust inward currents”, “robust inward currents” and “did not elicit currents”, respectively. Further, in test [4] (5×10^−5M), the “larval movements at higher concentration” value is “larval movements were observed to decrease”. In addition, the “larval response in AgOrco siRNA-treated larvae” value in test [4] (AgOrco siRNAs injected 48 h before, vs buffer-injected control) was “no longer responsive”. The “increase over the response threshold of DEET” value in test [4] (in vivo) is reported as 5 orders of magnitude. Further, the “threshold concentration for increased larval movement” value in test [4] (movements over 5-minute period) was 5 nM.
